These are literature values, as cited in patent US8653307B2 (California Institute of Technology, priority 2011, dated 2014).

The target in one data set is PI3Kα (Homo sapiens, UniProt P42336).
For the next data set, the system named is LoVo (human colon) cells. The following applies: read-out: IC50 (cytotoxicity).
A further data set deals with CaCo (human colon). The following applies: CaCo (human colon) cells; read-out: IC50 (cytotoxicity).
The test system of data set [1] is MDA-468 breast cancer line. Conditions: read-out: IC50 (cytotoxicity).

PI3Kα, sequence (P42336 whole entry): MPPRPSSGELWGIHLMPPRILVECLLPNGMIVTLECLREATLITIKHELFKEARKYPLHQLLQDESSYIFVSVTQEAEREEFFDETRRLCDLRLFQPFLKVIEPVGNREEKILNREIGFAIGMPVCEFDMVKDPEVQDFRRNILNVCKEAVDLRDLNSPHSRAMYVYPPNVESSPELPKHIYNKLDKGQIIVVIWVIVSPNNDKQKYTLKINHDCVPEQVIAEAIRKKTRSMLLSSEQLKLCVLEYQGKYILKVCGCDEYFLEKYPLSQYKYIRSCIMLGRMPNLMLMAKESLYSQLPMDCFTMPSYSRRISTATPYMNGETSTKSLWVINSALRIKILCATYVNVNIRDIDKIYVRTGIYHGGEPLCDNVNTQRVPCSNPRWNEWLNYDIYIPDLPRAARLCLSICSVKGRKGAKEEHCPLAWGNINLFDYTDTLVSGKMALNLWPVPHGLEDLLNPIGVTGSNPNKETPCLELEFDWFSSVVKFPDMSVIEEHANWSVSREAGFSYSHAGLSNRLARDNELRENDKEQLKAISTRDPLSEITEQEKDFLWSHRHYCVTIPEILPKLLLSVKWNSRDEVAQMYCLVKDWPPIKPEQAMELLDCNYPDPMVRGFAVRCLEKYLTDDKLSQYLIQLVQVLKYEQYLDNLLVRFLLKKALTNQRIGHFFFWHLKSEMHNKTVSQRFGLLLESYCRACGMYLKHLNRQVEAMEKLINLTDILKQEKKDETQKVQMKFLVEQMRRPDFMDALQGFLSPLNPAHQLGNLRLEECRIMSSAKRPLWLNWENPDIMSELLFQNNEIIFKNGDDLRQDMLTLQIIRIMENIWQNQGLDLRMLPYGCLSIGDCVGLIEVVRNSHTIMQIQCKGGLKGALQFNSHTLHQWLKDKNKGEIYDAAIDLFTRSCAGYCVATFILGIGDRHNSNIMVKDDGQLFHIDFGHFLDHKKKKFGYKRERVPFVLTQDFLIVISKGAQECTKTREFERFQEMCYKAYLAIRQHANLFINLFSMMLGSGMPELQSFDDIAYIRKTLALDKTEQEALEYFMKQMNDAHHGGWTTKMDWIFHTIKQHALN
PI3Kα, sequence (P27986 whole entry partner): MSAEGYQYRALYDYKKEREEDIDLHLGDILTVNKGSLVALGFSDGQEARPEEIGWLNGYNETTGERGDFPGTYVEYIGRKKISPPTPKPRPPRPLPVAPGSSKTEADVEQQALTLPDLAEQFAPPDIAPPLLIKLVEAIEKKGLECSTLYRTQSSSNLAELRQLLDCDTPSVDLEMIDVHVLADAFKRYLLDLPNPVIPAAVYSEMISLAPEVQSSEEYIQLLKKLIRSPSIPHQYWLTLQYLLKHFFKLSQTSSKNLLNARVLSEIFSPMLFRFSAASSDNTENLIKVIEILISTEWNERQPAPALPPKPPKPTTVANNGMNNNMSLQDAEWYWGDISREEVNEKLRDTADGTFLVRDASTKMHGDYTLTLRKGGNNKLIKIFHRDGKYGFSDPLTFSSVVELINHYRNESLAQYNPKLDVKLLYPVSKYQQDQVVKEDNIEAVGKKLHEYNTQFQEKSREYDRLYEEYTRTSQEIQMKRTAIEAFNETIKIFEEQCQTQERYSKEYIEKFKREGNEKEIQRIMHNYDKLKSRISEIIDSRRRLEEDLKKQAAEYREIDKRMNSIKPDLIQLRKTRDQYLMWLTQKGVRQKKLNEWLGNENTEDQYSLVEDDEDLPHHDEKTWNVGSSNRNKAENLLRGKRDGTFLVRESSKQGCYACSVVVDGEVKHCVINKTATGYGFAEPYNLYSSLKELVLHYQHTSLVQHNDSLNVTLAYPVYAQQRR

With `O=c1cc(N2CCOCC2)oc2c(-c3ccccc3)cccc12` [LY294002], the “selectivity among PI3Ks / related enzymes (in words)” value at PI3Kα was “somewhat selective”.
In general, IC50 refers to the concentration that inhibits the measured activity by half. On to liphagal, for which the IC50 in the data set with LoVo (human colon) cells was 580 nM; in the data set on CaCo (human colon) it was 670 nM; in data set [1], 1580 nM.
